{"source": "patent US20240174657A1", "about": "“SELECTIVE ANGIOTENSIN II RECEPTOR LIGANDS” (priority 2021, published 2024)", "format_in_all_cases": "in vitro ADME", "key": {"CYP3A4&5": {"system": "CYP3A4&5", "experiment": "CYP inhibition in human liver microsomes, testosterone substrate", "details": "probe testosterone, read-out: CYP3A4&5 testosterone Inh %"}, "[1]": {"system": "Cytochrome P450 enzymes (CYPs), especially CYP 2C9 and CYP 3A4", "experiment": "CYP enzyme inhibition, statements in text without method", "details": "found during development"}, "[2]": {"experiment": "Metabolic hydrolysis, statement in text without method", "details": "found during development"}}}
{"smiles": "CCCCOC(=O)NS(=O)(=O)c1sc(CC(C)C)cc1-c1ccc(Cn2ccnc2)cc1", "note": "[Example C21, N-butyloxycarbonyl-3-(4-imidazol-1-ylmethylphenyl)-5-isobutylthiophene-2-sulfon-amide]", "values": [{"measurement": "inhibition at 10 µM", "setting": "CYP3A4&5", "result": 94, "unit": "%"}, {"measurement": "inhibition of Cytochrome P450 enzymes (in words)", "setting": "[1]", "result": "potent inhibitor"}, {"measurement": "metabolic hydrolysis (in words)", "setting": "[2]", "result": "rapidly hydrolysed to an inactive sulfonamide metabolite"}]}
